This note sets out measurements from patent US10752624B2, “Kinase inhibitors” (Origenis GmbH, priority 2012, dated 2020).

The target in one assay is LRRK2 (Homo sapiens, UniProt Q5S007). Description: LRRK2-LRRK2 G2019S-Assay (LanthaScreen Eu Kinase Binding Assay). The note with it: 5 nM LRRK2, 10 nM tracer 236, 2 nM EU-Anti-GST antibody, 1 h at RT; read-out: LRRK2 Activities: IC50. The procedure, abridged:
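In a TR-FRET tracer displacement assay, LRRK2 or its mutants at 5 nM were mixed with 2 nM Eu-anti-GST antibody and 10 nM tracer 236 in kinase buffer A for 1 h at RT. The 665/615 nm emission ratio was plotted against inhibitor concentration, and IC50 came from a variable-slope sigmoidal fit.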
On the technique in general: In TR-FRET formats the signal depends on donor and acceptor labels being close together.

The target of a further assay is T1, SYK kinase (Homo sapiens, UniProt P43405).
T1 construct: purchased Invitrogen, Carlsbad
The assay can be described thus: SYK Assay (OMNIA Kinase Assay, SOX peptide fluorescence). It is filed as biochemical. The note with it: 1 mM ATP, 10 μM Omnia Peptide Substrate Tyr 7, 30° C., readings for 30 minutes; read-out: SYK Activities: IC50. The procedure: In the assay OMNIA® KINASE ASSAY by Invitrogen Corporation (Carlsbad) the effect of invention of a compound on the phosphorylation is determined by measurement of fluorescence intensity of a chelation-enhanced fluorophore called SOX. Upon phosphorylation of the peptide by the kinase of interest, Mg2+ is chelated to form a bridge between the SOX moiety and the phosphate group that is transferred to the specific tyrosine on the peptide. The fluorescence intensity is directly proportional to the amount of peptide phosphorylation.
To the wells of an 384 well small volume plate (Greiner, Frickenhausen) are added (i) the compound under test in 5% DMSO/distilled water (2 μl), (ii) 16 μl of the master mix containing ATP, DTT, Kinase Reaction Buffer, Omina Peptide Substrate Tyr 7 resulting in a final concentration of 1 mM ATP, 0.2 mM DTT and 10 μM Peptide Substrate.
The Master Mix and the assay plate was incubated to reaction temperature before the measurement (30° C.). The reaction was started with addition of (iii) 2 μl 4 μg/ml SYK kinase (Invitrogen, Carlsbad). During measurement fluorescence intensity readings were collected using a TECAN M1000 at a wavelength of λex 360/λem 485 nm every 30 s for 30 minutes. The reaction velocity was plotted versus the inhibitor concentration to determine the IC50 using XLFit 5.0 (IDBS, Guildford) to fit to a sigmoidal dose response curve.

Molecules are shown by their SMILES. pIC50: −log10 of the molar value.

Chain of LRRK2 (Q5S007 970-2527 limits assumed): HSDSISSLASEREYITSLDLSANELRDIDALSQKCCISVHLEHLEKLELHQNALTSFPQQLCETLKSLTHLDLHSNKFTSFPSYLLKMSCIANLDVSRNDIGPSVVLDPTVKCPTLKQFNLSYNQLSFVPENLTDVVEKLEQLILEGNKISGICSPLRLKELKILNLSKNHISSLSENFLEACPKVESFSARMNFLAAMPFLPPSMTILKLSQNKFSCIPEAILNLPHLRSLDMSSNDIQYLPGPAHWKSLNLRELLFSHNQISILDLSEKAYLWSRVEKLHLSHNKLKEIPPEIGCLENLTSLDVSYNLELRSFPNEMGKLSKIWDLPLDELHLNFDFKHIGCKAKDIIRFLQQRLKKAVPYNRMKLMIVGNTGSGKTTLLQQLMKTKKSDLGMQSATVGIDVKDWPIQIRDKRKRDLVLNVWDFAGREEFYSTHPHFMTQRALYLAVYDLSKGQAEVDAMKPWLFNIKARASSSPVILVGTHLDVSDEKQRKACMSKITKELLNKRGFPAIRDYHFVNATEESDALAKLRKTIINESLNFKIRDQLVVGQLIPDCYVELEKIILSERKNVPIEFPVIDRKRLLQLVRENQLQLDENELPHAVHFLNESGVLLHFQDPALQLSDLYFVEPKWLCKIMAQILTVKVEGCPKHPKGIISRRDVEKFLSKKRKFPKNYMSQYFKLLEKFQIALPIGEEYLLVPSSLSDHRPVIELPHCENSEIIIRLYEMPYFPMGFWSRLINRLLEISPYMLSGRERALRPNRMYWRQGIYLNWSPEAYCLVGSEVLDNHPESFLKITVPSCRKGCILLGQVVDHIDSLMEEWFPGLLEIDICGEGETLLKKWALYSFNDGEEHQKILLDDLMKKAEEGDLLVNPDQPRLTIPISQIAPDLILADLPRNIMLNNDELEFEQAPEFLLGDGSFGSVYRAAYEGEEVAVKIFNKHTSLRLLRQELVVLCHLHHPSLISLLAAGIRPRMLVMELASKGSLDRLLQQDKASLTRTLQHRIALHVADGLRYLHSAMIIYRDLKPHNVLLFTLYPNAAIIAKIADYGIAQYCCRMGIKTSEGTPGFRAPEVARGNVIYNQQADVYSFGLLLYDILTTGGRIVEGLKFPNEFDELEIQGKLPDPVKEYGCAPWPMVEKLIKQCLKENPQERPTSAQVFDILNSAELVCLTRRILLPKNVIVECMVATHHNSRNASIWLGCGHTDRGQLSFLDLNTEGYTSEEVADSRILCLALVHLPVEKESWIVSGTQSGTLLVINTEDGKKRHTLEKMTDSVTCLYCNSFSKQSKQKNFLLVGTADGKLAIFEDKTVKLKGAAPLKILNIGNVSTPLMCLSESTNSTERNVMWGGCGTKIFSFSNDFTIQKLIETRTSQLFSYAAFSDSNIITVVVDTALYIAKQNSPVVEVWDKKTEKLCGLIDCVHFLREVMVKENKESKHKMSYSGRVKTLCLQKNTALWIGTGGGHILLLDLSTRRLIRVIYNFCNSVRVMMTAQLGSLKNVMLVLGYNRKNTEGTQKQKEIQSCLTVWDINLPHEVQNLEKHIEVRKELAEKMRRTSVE

`CS(=O)(=O)c1ccc2nc(Nc3ccc(N4CCOC4=O)cc3)c3[nH]ncc3c2c1` [Example 76, 3-(4-((8-(methylsulfonyl)-3H-pyrazolo[3,4-c]quinolin-4-yl)amino)phenyl)oxazolidin-2-one]: the negative logarithm of the IC50 (pIC50) (usually the negative decadic logarithm of the IC50, by convention in mol/L) was 7.00 to 8.00 on LRRK2 and 6.00 to 7.00 on SYK kinase.

`CS(=O)(=O)c1ccc2nc(Nc3cnn(C4CCOCC4)c3)c3[nH]ncc3c2c1` [Example 143, 8-(methylsulfonyl)-N-(1-(tetrahydro-2H-pyran-4-yl)-1H-pyrazol-4-yl)-3H-pyrazolo[3,4-c]quinolin-4-amine]: the negative-log IC50 (pIC50) at LRRK2 is greater than 8.00; at SYK kinase it was 7.00 to 8.00.

As to `COc1cc(C(=O)N2CCOCC2)ccc1Nc1nc2ccc(S(C)(=O)=O)cc2c2cn[nH]c12` [Example 196, (3-methoxy-4-((8-(methylsulfonyl)-3H-pyrazolo[3,4-c]quinolin-4-yl)amino)phenyl)(morpholino)methanone], the negative-log IC50 (pIC50) is 7.00 to 8.00 on LRRK2 and 6.00 to 7.00 at SYK kinase.

`COCC(C)(C)n1cc(Nc2nc3cccc(OC)c3c3cn[nH]c23)cn1` [Example 204, 9-methoxy-N-(1-(1-methoxy-2-methylpropan-2-yl)-1H-pyrazol-4-yl)-3H-pyrazolo[3,4-c]quinolin-4-amine]: the values for the negative-log IC50 (pIC50) at LRRK2 and at SYK kinase were greater than 8.00 and 6.00 to 7.00, respectively.

On to `CS(=O)(=O)c1ccc2nc(Nc3ccc(C(=O)N4CCOCC4)cc3)c3[nH]ncc3c2c1` [Example 64, (4-((8-(methylsulfonyl)-3H-pyrazolo[3,4-c]quinolin-4-yl)amino)phenyl)(morpholino)methanone], for which the pIC50 at LRRK2 and at SYK kinase was 7.00 to 8.00 each time.

`CC(=O)N1CCC(n2cc(Nc3nc4cc(S(C)(=O)=O)ccc4c4cn[nH]c34)cn2)CC1` [Example 168, 1-(4-(4-((7-(methylsulfonyl)-3H-pyrazolo[3,4-c]quinolin-4-yl)amino)-1H-pyrazol-1-yl)piperidin-1-yl)ethan-1-one]: the pIC50 at LRRK2 and on SYK kinase was 7.00 to 8.00 in each case.

Regarding `COCC(C)(C)n1cc(Nc2nc3ccc(S(C)(=O)=O)cc3c3cn[nH]c23)cn1` [Example 208, N-(1-(1-methoxy-2-methylpropan-2-yl)-1H-pyrazol-4-yl)-8-(methylsulfonyl)-3H-pyrazolo[3,4-c]quinolin-4-amine], the negative-log IC50 (pIC50) was greater than 8.00 at LRRK2 and 7.00 to 8.00 at SYK kinase.

For `C=C(C)Cn1cc(Nc2nc3cccc(OC)c3c3cn[nH]c23)cn1` [Example 258, 9-methoxy-N-(1-(2-methylallyl)-1H-pyrazol-4-yl)-3H-pyrazolo[3,4-c]quinolin-4-amine], the negative-log IC50 (pIC50) was greater than 8.00 at LRRK2 and 6.00 to 7.00 at SYK kinase.

Turning to `COc1ccc2nc(Nc3cnn(C(C)C(C)C)c3)c3n[nH]cc3c2c1` (stereo not shown) [Example 321, 8-methoxy-N-(1-(3-methylbutan-2-yl)-1H-pyrazol-4-yl)-2H-pyrazolo[3,4-c]quinolin-4-amine], the pIC50 was 7.00 to 8.00 at LRRK2 and 6.00 to 7.00 at SYK kinase.

Turning to `CS(=O)(=O)c1ccc2nc(Nc3ccc(C(N)=O)cc3)c3[nH]ncc3c2c1` [Example 66, 4-((8-(methylsulfonyl)-3H-pyrazolo[3,4-c]quinolin-4-yl)amino)benzamide], the negative-log IC50 (pIC50) at LRRK2 and at SYK kinase was 7.00 to 8.00 each time.

In the case of `CS(=O)(=O)c1ccc2nc(Nc3cnn(C4CCNC4)c3)c3n[nH]cc3c2c1` (stereo not shown) [Example 327, 8-(methylsulfonyl)-N-(1-(pyrrolidin-3-yl)-1H-pyrazol-4-yl)-2H-pyrazolo[3,4-c]quinolin-4-amine], the negative logarithm of the IC50 (pIC50) on LRRK2 and at SYK kinase was greater than 8.00 each time.

As for `COc1cccc2nc(Nc3ccc(-c4cnco4)cc3)c3[nH]ncc3c12` [Example 57, 9-methoxy-N-(4-(oxazol-5-yl)phenyl)-3H-pyrazolo[3,4-c]quinolin-4-amine], the pIC50 is 7.00 to 8.00 on LRRK2 and 6.00 to 7.00 on SYK kinase.

`CSc1ccc2nc(Nc3ccc(CN(C)C)cc3)c3[nH]ncc3c2c1` [Example 48, N-(4-((dimethylamino)methyl)phenyl)-8-(methylthio)-3H-pyrazolo[3,4-c]quinolin-4-amine]: the pIC50 on LRRK2 and on SYK kinase was 7.00 to 8.00 throughout.

On to `CS(=O)(=O)c1ccc2nc(Nc3ccc(N4CCN(CCO)CC4)cc3)c3[nH]ncc3c2c1` [Example 309, 2-(4-(4-((8-(methylsulfonyl)-3H-pyrazolo[3,4-c]quinolin-4-yl)amino)phenyl)piperazin-1-yl)ethan-1-ol], for which the pIC50 is greater than 8.00 on LRRK2 and 7.00 to 8.00 at SYK kinase.

In the case of `COc1cccc2nc(Nc3cnn(CC(=O)N(C)C)c3)c3[nH]ncc3c12` [Example 339, 2-(4-((9-methoxy-3H-pyrazolo[3,4-c]quinolin-4-yl)amino)-1H-pyrazol-1-yl)-N,N-dimethylacetamide], the pIC50 was 7.00 to 8.00 at LRRK2 and 6.00 to 7.00 at SYK kinase.

Regarding `CS(=O)(=O)c1ccc2nc(Nc3cnn(CCF)c3)c3[nH]ncc3c2c1` [Example 221, N-(1-(2-fluoroethyl)-1H-pyrazol-4-yl)-8-(methylsulfonyl)-3H-pyrazolo[3,4-c]quinolin-4-amine], the negative logarithm of the IC50 (pIC50) on LRRK2 and at SYK kinase was greater than 8.00 in each case.

As to `COc1ccc2nc(Nc3ccc(N4CCC(N5CCN(C)CC5)CC4)cc3)c3n[nH]cc3c2c1` [Example 3, 8-methoxy-N-(4-(4-(4-methylpiperazin-1-yl)piperidin-1-yl)phenyl)-2H-pyrazolo[3,4-c]quinolin-4-amine], the negative-log IC50 (pIC50) on LRRK2 is 7.00 to 8.00; at SYK kinase, 6.00 to 7.00.

With `CS(=O)(=O)c1cccc(Nc2nc3ccc(S(C)(=O)=O)cc3c3cn[nH]c23)c1` [Example 78, 8-(methylsulfonyl)-N-(3-(methylsulfonyl)phenyl)-3H-pyrazolo[3,4-c]quinolin-4-amine], the results for the negative logarithm of the IC50 (pIC50) at LRRK2 and on SYK kinase were 7.00 to 8.00 and 6.00 to 7.00, respectively.

Turning to `COc1c(Nc2nc3ccc(S(C)(=O)=O)cc3c3cn[nH]c23)cnn1C1CCN(C(C)(C)C)CC1` [Example 229, N-(1-(1-(tert-butyl)piperidin-4-yl)-5-methoxy-1H-pyrazol-4-yl)-8-(methylsulfonyl)-3H-pyrazolo[3,4-c]quinolin-4-amine], the values for the negative logarithm of the IC50 (pIC50) at LRRK2 and on SYK kinase were 7.00 to 8.00 and 6.00 to 7.00, respectively.

`COc1ccc2nc(Nc3ccc(N4CCN(CCO)CC4)cc3)c3[nH]ncc3c2c1` [Example 297, 2-(4-(4-((8-methoxy-3H-pyrazolo[3,4-c]quinolin-4-yl)amino)phenyl)piperazin-1-yl)ethan-1-ol]: the negative-log IC50 (pIC50) at LRRK2 and on SYK kinase was 7.00 to 8.00 in each case.

In the case of `CN1CCN(C2CCN(c3ccc(Nc4nc5ccc(S(C)(=O)=O)cc5c5cn[nH]c45)cc3)CC2)CC1` [Example 67, N-(4-(4-(4-methylpiperazin-1-yl)piperidin-1-yl)phenyl)-8-(methylsulfonyl)-3H-pyrazolo[3,4-c]quinolin-4-amine], the negative-log IC50 (pIC50) on LRRK2 is 7.00 to 8.00; at SYK kinase, greater than 8.00.

Turning to `COc1cccc2nc(Nc3cnn(C4CCN(C)CC4)c3)c3[nH]ncc3c12` [Example 118, 9-methoxy-N-(1-(1-methylpiperidin-4-yl)-1H-pyrazol-4-yl)-3H-pyrazolo[3,4-c]quinolin-4-amine], the negative-log IC50 (pIC50) on LRRK2 was greater than 8.00; on SYK kinase, 7.00 to 8.00.

Consider `COCCCn1cc(Nc2nc3ccc(S(C)(=O)=O)cc3c3cn[nH]c23)c(OC)n1` [Example 231, N-(3-methoxy-1-(3-methoxypropyl)-1H-pyrazol-4-yl)-8-(methylsulfonyl)-3H-pyrazolo[3,4-c]quinolin-4-amine], for which the negative-log IC50 (pIC50) was 7.00 to 8.00 at LRRK2 and 6.00 to 7.00 at SYK kinase.
